SMILES strings stand for the structures. A value given as a limit tells only on which side of the number the result lay.

Consider four molecules from paper PMC6221475 (Bioorganic & medicinal chemistry letters, 2018).

In data set [1] the target is T1, VAChT (Homo sapiens, UniProt Q16572).
T1 sequence (Q16572 1-532): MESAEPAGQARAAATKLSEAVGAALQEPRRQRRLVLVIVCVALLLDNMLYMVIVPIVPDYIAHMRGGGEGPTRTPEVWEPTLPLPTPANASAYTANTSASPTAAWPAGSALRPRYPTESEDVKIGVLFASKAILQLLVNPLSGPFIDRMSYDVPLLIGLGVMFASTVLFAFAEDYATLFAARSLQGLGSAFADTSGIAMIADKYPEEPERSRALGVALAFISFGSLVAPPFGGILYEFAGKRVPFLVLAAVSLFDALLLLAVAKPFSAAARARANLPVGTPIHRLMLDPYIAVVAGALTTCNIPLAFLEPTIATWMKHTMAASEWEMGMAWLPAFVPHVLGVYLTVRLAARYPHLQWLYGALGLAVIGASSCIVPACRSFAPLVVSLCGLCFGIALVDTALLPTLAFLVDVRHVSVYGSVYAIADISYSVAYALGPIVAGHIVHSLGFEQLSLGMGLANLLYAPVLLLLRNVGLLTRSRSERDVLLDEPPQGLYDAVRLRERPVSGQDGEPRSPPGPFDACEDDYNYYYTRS
Nature of the data set: VAChT competitive binding assay with tritiated vesamicol. As to conditions: read-out: Ki-VAChT; tritiated vesamicol as competitive radioligand.

The target of another data set is σ2 receptors. Nature of the data set: σ2 receptor in vitro binding assay with [3H]DTG.
The target in a further data set is σ1 receptors. Kind of data set: σ1 receptor in vitro binding assay with [3H]pentazocine.
Data set [2] has as its system VAChT. As to conditions: cited from earlier work.
In data set [3] the test system is VAChT. As to conditions: cited from earlier work. This is another data set of the same source.

The term Ki denotes a measure of affinity in units of concentration, obtained from inhibition or displacement. As for `O=C(c1ccc(F)cc1)C1CCN(C2Cc3c(O)cccc3CC2O)CC1` (single isomer, unassigned; (-)) [(−)-1, (−)-(1-(3,8-Dihydroxy-1,2,3,4-tetrahydronaphthalen-2-yl)piperidin-4-yl)(4-fluorophenyl)methanone], the Ki on VAChT [1] was 4.62 ± 0.22 nM; on σ2 receptors (read-out: Ki-σ2, [3H]DTG as radioligand), above 10000 nM; on σ1 receptors (read-out: Ki-σ1, [3H]pentazocine as radioligand) it was 2010 ± 450 nM. In the data set on σ2 receptors (selectivity ratio for VAChT over σ2), the VAChT/σ2 is recorded as 2165. For the same molecule, the VAChT/σ1 with σ1 receptors (selectivity ratio for VAChT over σ1) amounted to 435.
For `OC1Cc2cccc(OCC[18F])c2CC1N1CCC(c2ccccc2)CC1` (single isomer, unassigned; (-)) [[^18F]FEOBV, (−)-5-[^18F]fluoroethoxybenzovesamicol], in the data set with VAChT [2] (human, PET, ref [11], [16], [17]), the “time required to equilibrate in the striatum” value is listed as “over 6 h”.
With `O=C(c1ccc(F)cc1)C1CCN(C2Cc3c(cccc3OCC[18F])CC2O)CC1` (single isomer, unassigned; (-)) [[^18F]VAT, (−)-(1-(8-(2-[^18F]fluoroethoxy)-3-hydroxy-1,2,3,4tetrahydro-naphthalen-2-yl)-piperidin-4-yl)(4-fluorophenyl)-methanone], the “standardized uptake value (SUV) at peak uptake” value with VAChT [3] (NHP brain, at 15 min, ref [23]) is reported as 5.1. Moreover, the “uptake ratio of target (striatum) to non-target (cerebellum)” value with VAChT [3] (NHP brain, ref [23]) is on record as 3.0. The “time of peak uptake in the brain” value with VAChT [3] (in vivo) was 15 min.
`OC1Cc2cccc([123I])c2CC1N1CCC(c2ccccc2)CC1` (single isomer, unassigned; (-)) [[^123I]IBVM, (−)-5-[^123I]iodo-benzovesamicol]: the “time of peak uptake in the target regions post-injection” value in the data set on VAChT [2] (human subjects, SPECT, ref [10], [13]–[15]) is reported as “at least 6 h”.
